For one assay, the system named is T3M4 cells. Briefly: MTT cell growth assay, T3M4 cells (Example 1). Type of assay: cell-based, human. An excerpt:
(§1) Cell culture and proliferation assay: The following materials are purchased: FCS, RPMI and Dulbecco's modified Eagle medium (DMEM), trypsin-EDTA solution, penicillin-streptomycin solution from Biochrom K G (Berlin, Germany). All the other reagents are from Sigma Chemical Co. (St. Louis, Mo., USA). ASPC-1, MIA PaCA-2, human pancreatic cell lines are obtained from American Type Culture Collection (Rockville, Md.). Compound I is kindly provided by Novartis Pharma AG (Basel, Switzerland). T3M4 human pancreatic cell lines are a gift from Dr. R. S. Metzgar (Durham, N.C., USA). TAKA-1 immortalized Syrian golden hamster pancreatic ductal cells are a gift from Prof. P. Pour (University of Nebraska, Omaha, Nebr., USA). Human pancreatic cancer cell lines are routinely grown in DMEM (MIA-PaCA-2) or RPMI (ASPC-1, T3M4) supplemented with 10% FCS, 100 U/ml penicillin and 100 μg/ml streptomycin (complete medium).
(§2) TAKA-1 cells are grown in RPMI supplemented with 10% FCS, 100 U/ml penicillin and 100 μg/ml streptomycin. Cells are seeded overnight at a density of 5000 cells/well in 96-well plates and the proliferation assay is performed as described above. […] Cellular MTT is solubilized with acidic isopropanol and the optical density is measured at 570 nm using a plate reader (Dynatech MR 7000). […]
(§3) Statistical analysis: Results are expressed as mean±SD. […]
(In general: Tetrazolium assays rely on reduction of a dye to a coloured formazan, in cell work by metabolically active cells.)

Assay [1] deals with TAKA-1 cells and the three pancreatic cancer cell lines. In words: MTT cell growth assay, span over all four lines (Example 1). Type of assay: cell-based. The note with it: span over TAKA-1 and three pancreatic cancer cell lines.
Text: as §1, §2, §3

For a further assay, the system named is ASPC-1 cells. In words: GI50 by MTT assay, Aspc-1 (Example 2). Type of assay: cell-based. The note with it: Homo sapiens, ASPC1, read-out: GI50 concentration. From the text:
(§4) Material and Methods: RPMI-1640 DMEM, trypsin-EDTA, and penicillin-streptomycin are purchased from Invitrogen (Karlsruhe, Germany); FBS from PAN Biotech (Aidenbach, Germany); human recombinant PDGF, IGF-1 and FGF-2 from R&D Systems (Abingdon, United Kingdom), and EGF from Upstate Biotechnology (Hamburg, Germany). Phospho-PDGFR-beta (tyr857) and P-EGFR (tyr1173) polyclonal antibodies are purchased from Santa Cruz Biotechnology, Inc. (Santa Cruz, Calif., USA). Phospho-p44/42 MAPK (Thr202/Tyr204) antibodies are purchased from Cell Signaling Technology (Frankfurt, Germany), anti-rabbit IgG HRPO-linked antibodies and ECL immunoblotting detection reagents from Amersham Biosciences (Amersham Life Science, Amersham, UK), and anti-goat IgG-HPRO peroxidase linked antibodies from Santa Cruz Biotechnology, Inc. (Santa Cruz, Calif., USA). Complete mini-EDTA-free protease inhibitor cocktail tablets and Annexin-V-Fluos are purchased from Roche GmbH (Mannheim, Germany). All other reagents are from Sigma Chemical Company (Taufkirchen, Germany).
(§5) Cell culture and MTT assay: Human pancreatic cancer cell lines are routinely grown in DMEM (Colo-357 and Mia-PaCa-2) or RPMI (Aspc-1, BxPc-3, Capan-1, and T3M4) supplemented with 10% FBS, 100 U/ml penicillin, and 100 μg/ml streptomycin (complete medium). […] Formazan products are solubilized with acidic isopropanol, and the optical density is measured at 570 nm. […]

The subject of a further assay is BxPc-3 cells. Briefly: GI50 by MTT assay, BxPc-3 (Example 2). Type of assay: cell-based. The note with it: Homo sapiens, BxPc-3, complete medium (10% FBS), 48 h, read-out: GI50 concentration.
Text: as §4, §5

Another assay concerns Colo-357 cells. Briefly: GI50 by MTT assay, Colo-357 (Example 2). The format is cell-based. The note with it: Homo sapiens, COLO357, Colo-357, complete medium (10% FBS), 48 h, read-out: GI50 concentration.
Text: as §4, §5

The next assay deals with MAPK. Briefly: Western blot of MAPK phosphorylation in growth factor-conditioned cells. The format is cell-based, human. Particulars: growth factor-conditioned Mia-PaCa-2 and T3M4 cells, Western blot. As to the method: (§6) Western blot analysis: Cell culture monolayers are washed twice with ice-cold PBS and lysed with buffer containing Tris-HCl (50 mM, pH 7.4), NP-40 (1%), Na-deoxycholate (0.25%), NaCl (150 mM), EDTA (1 mM), PMSF (1 mM), Na3VO4 (1 mM), NaF (1 mM) and one tablet of complete mini-EDTA-free protease inhibitor cocktail (in 10 ml buffer). Protein concentration is determined by the BCA protein assay (Pierce Chemical Co., Rockford, Ill., USA). 30 μg of cell lysates are separated on SDS-polyacrylamide gels and electroblotted onto nitrocellulose membranes. Membranes are then incubated in blocking solution (5% nonfat-milk in 20 mM Tris-HCl, 150 mM NaCl, 0.1% Tween-20) (TBS-T), followed by incubation with the indicated antibodies at 4° C. overnight. The membranes are then washed in TBS-T and incubated with HRPO-conjugated secondary antibodies for 1 hour at room temperature. Antibody detection is performed with an enhanced chemiluminescence reaction. Statistical analysis: Results are expressed as mean±SEM. For statistical analysis, the Student's t-test is used. Significance is defined as p<0.05.
On the technique in general: Immunoblotting shows a protein as a band on a membrane.

A further assay concerns the target T1, EGFR (Homo sapiens, UniProt P00533).
T1 construct: endogenous in cells; host or cells: Mia-PaCa-2 and T3M4 pancreatic cancer cells
In words: Western blot of EGFR phosphorylation in growth factor-conditioned cells. Type of assay: cell-based. Particulars: growth factor-conditioned Mia-PaCa-2 and T3M4 cells. Here is the method:
as §6

A further assay has as its system pancreatic tumor cells. Particulars: complete medium (10% FCS) and 1% FCS medium. An excerpt: The resulting DNA histograms are interpreted using the Cell Quest Pro software (Becton Dickinson and Company, New York, USA).
In assay [2] the test system is Lung cancer (6 cell lines). Particulars: other reported cancer cells, read-out: GI50 concentration; cited from earlier work.
The test system of assay [3] is Lung cancer (A549 cell line). Particulars: other reported cancer cells, read-out: GI50 concentration; cited from earlier work.

Data on 1 compound can be found in patent publication US20060167006A1, “Method of treatment” (priority 2003, published 2006).

Where “and” joins values, the source holds several entries; their conditions need not be identical. Equal entries are not always repeated. Where two headings read alike, the source gives them in different places.

T1 sequence (P00533 25-1210): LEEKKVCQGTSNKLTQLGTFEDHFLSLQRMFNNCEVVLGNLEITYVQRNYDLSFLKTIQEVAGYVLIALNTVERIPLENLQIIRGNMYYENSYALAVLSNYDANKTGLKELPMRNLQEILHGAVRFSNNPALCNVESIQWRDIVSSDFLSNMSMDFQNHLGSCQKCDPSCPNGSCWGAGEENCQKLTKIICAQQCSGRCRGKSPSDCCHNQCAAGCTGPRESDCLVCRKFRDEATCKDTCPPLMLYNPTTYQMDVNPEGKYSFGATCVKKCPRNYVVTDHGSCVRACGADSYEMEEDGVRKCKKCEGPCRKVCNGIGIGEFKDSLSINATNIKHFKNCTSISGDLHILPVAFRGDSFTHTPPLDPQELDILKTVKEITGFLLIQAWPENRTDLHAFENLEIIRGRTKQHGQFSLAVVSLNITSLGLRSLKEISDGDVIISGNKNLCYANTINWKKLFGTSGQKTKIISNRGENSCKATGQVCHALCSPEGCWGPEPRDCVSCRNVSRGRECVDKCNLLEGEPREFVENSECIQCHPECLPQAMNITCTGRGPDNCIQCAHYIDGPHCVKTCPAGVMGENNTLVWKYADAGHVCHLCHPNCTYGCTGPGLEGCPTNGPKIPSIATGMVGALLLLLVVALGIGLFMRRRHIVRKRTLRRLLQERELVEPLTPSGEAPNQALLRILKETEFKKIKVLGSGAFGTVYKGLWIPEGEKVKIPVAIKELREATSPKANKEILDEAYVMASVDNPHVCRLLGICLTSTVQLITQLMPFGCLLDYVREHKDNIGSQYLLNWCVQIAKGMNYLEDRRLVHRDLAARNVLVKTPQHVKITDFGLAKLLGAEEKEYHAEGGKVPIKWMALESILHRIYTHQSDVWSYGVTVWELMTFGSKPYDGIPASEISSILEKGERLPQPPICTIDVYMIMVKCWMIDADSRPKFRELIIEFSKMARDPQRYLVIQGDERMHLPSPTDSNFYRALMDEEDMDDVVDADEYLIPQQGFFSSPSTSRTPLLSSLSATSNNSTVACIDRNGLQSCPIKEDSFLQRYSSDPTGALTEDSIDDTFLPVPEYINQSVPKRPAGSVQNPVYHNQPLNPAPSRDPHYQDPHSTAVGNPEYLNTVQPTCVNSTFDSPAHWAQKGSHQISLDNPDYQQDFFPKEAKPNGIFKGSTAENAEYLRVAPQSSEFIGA

For `Cc1ccc(NC(=O)c2ccc(CN3CCN(C)CC3)cc2)cc1Nc1nccc(-c2cccnc2)n1` [Compound I], the inhibition at 75 µM in the assay on T3M4 cells (Homo sapiens, T3M4, 72 h, T3M4, 75 μM Compound I, read-out: Percent growth inhibition by comparison with control cell growth) came out at 85.6%. In addition, in the assay on T3M4 cells (T3M4, 5 μM Compound I, 72 h, 5 µM), the “Percent growth inhibition by comparison with control cell growth” value was −12.9% and −4.8% and −3.8%. Further, the “Minimal threshold effects on cell growth” value in assay [1] (5 μM Compound I, p>0.05) is reported as −4% to −9. Further, the “Maximal inhibitory effects on cell growth” value in assay [1] (75 µM Compound I, p<0.001) is listed as −77% to −90. For the same compound, the GI50 was 31.5 µM with ASPC-1 cells (Aspc-1, complete medium (10% FBS), 48 h, MTT); 20 µM with ASPC-1 cells (Aspc-1, low serum conditions (1% FCS)); 21 µM with BxPc-3 cells; 17 µM in the assay with Colo-357 cells; roughly 5 µM in assay [2]; 2 to 3 µM in [3]. In addition, in the assay with MAPK, the “Inhibition of MAPK activation” value is recorded as “does not inhibit activation”. In addition, the “Inhibition of EGFR activation” value on EGFR is given as “does not inhibit activation”. For the same compound, in the assay with pancreatic tumor cells, the Apoptotic cell death result is “No apoptotic cell death is observed”.

Usually inhibition stands for the percentage by which the read-out fell short of the control.
